What was measured:
[1] = system: NCI-H460; experiment: Growth inhibition of human H460 cells by SRB assay; format: functional, cell-based
[2] = target: Histone deacetylase 2 (Homo sapiens, UniProt Q92769); experiment: Inhibition of HDAC2 in HeLa cell lysates
[3] = system: HCT-116; experiment: Growth inhibition of human HCT116 cells by SRB assay; format: functional, cell-based
[4] = system: NB-4; experiment: Growth inhibition of human NB4 cells by SRB assay; format: functional, cell-based

Chain of Histone deacetylase 2 (Q92769 whole entry): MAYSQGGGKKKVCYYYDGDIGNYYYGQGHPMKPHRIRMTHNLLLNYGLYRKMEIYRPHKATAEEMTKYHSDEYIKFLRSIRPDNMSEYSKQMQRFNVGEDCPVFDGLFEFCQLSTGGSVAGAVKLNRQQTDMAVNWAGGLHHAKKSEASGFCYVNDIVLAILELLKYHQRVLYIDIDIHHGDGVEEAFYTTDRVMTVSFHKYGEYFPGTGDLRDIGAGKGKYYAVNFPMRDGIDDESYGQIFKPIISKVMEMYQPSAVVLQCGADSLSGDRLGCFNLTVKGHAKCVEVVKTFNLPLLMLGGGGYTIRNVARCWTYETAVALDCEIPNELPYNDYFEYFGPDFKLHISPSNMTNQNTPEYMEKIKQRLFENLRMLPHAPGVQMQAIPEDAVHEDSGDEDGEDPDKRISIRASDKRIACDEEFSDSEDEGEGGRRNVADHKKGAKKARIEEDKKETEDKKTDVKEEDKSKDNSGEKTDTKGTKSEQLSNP

Row | SMILES | IC50 [1] | IC50 [2] | IC50 [3] | IC50 [4]
1 | O=C(CCCCC(OCc1ccccc1)C(=O)Nc1ccccc1)NO (stereo not given) | 5500 nM | 500 nM | 2400 nM | > 5000 nM
2 | COc1ccc(CO[C@H](CCCCCC(=O)NO)C(=O)Nc2ccccc2)cc1 | 500 nM | ≥ 50 nM | 390 nM | 70 nM
3 | O=C(CCCCCC(OCc1ccc(C(F)(F)F)cc1)C(=O)Nc1ccccc1)NO (stereo not given) | 480 nM | ≥ 50 nM | 430 nM | 170 nM
4 | COC(CCCCC(=O)NO)C(=O)Nc1ccccc1 (stereo not given) | 5700 nM | 500 nM | 5000 nM | 3500 nM
5 | COc1ccc(NC(=O)C(CCCCCC(=O)NO)OCc2ccccc2)cc1 (stereo not given) | 1000 nM | 500 nM | 500 nM | 250 nM
6 | C=CCOC(CCCCCC(=O)NO)C(=O)Nc1ccccc1 (stereo not given) | 1790 nM | 500 nM | 990 nM | 450 nM
7 | COc1ccc(COC(CCCCCC(=O)NO)C(=O)Nc2ccc(OC)cc2)cc1 (stereo not given) | 300 nM | 500 nM | 340 nM | 150 nM
8 | COc1cccc(COC(CCCCCC(=O)NO)C(=O)N(Cc2cccc(OC)c2)c2ccccc2)c1 (stereo not given) | 7400 nM | 500 nM | 7500 nM | 4000 nM
9 | COc1ccc(CO[C@@H](CCCCCC(=O)NO)C(=O)Nc2ccccc2)cc1 | 450 nM | ≥ 50 nM | 250 nM | 110 nM
10 | O=C(CCCCCC(Oc1cccc(Oc2ccccc2)c1)C(=O)Nc1ccccc1)NO (stereo not given) | 680 nM |  | 670 nM | 230 nM
11 | COc1cc(COC(CCCCCC(=O)NO)C(=O)Nc2ccccc2)cc(OC)c1 (stereo not given) | 450 nM | ≥ 50 nM | 300 nM | 50 nM
12 | CCCOC(CCCCC(=O)NO)C(=O)Nc1ccccc1 (stereo not given) | 10400 nM | 500 nM | 8500 nM | 4100 nM
13 | C=CCOC(CCCCCCC(=O)NO)C(=O)Nc1ccccc1 (stereo not given) | 1800 nM | ≥ 50 nM | 950 nM | 620 nM
14 | Cc1ccc(COC(CCCCCC(=O)NO)C(=O)Nc2ccccc2)cc1 (stereo not given) | 590 nM | ≥ 50 nM | 270 nM | 120 nM
15 | O=C(CCCCCC(O)C(=O)Nc1ccccc1)NO (stereo not given) | 460 nM | 500 nM | 1090 nM | 340 nM
16 | O=C(CCCCCC(OCc1ccc(Br)cc1)C(=O)Nc1ccccc1)NO (stereo not given) | 490 nM | ≥ 50 nM | 280 nM | 60 nM
17 | COC(CCCCCC(=O)NO)C(=O)Nc1ccccc1 (stereo not given) | 1200 nM | 500 nM | 880 nM | 520 nM
18 | COc1ccc(COC(CCCCCC(=O)NO)C(=O)Nc2ccccc2)cc1 (stereo not given) | 520 nM | ≥ 50 nM | 220 nM | 120 nM
19 | COc1cccc(COC(CCCCCC(=O)NO)C(=O)Nc2ccccc2)c1 (stereo not given) | 590 nM | ≥ 50 nM | 630 nM | 160 nM
